Test results as given in patent US11242361B2 (Proteostasis Therapeutics, Inc., priority 2013, dated 2022).
Counter-ions that a name gives are not always drawn.

biological target: USP14 (Homo sapiens (Human), UniProt P54578); assay: USP14 Inhibition Assay; format: biochemical; settings: average value from a minimum of two experimental determinations, read-out: IC50 Category
Protocol: Example 17: USP14 Inhibition Assay
“I” in the Table below designates an IC50 of >5 μM, “II” in the Table below designates and IC50 between 0.5 and 5 μM, and “III” designates an IC50<0.5 μM. The IC50 values in the Table below represent the average value from a minimum of two experimental determinations.

Sequence of USP14 (P54578 whole entry, looked up): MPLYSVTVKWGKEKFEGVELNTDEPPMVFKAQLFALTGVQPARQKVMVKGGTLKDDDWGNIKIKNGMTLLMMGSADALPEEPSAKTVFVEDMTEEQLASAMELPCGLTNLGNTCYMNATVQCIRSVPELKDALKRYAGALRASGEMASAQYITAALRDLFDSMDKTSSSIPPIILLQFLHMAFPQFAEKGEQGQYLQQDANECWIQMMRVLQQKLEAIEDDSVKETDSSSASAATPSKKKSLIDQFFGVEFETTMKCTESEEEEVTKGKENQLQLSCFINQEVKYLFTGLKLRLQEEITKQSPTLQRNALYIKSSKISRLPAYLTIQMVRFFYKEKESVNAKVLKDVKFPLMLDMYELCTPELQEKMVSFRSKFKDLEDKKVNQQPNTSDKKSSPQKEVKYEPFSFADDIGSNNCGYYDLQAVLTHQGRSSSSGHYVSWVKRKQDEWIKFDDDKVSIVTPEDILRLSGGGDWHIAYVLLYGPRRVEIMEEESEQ

Row | SMILES | IC50 [µM]
1 | COC(CNC(=O)CCc1cnc2c(C(=O)CN3CCCCC3)c(C)n(-c3ccc(C#N)cc3)c2c1)OC [Compound 296] | < 0.5
2 | Cc1c(C(=O)CN2CCC(CO)CC2)c2ncc(Br)cc2n1-c1ccc(C#N)cc1 [Compound 312] | 0.5 to 5
3 | COCCOc1cnc2c(C(=O)CN3CCC(O)CC3)c(C)n(-c3ccc(C#N)cc3)c2c1 [Compound 341] | < 0.5
4 | Cc1c(C(=O)CN2CCC(O)CC2)c2ncc(/C=C/c3nnc(C(F)(F)F)o3)cc2n1-c1ccc(C#N)cc1 [Compound 321] | < 0.5
5 | Cc1c(C(=O)CN2CCCCC2)c2cc(F)ccc2n1-c1ccc(Cl)cc1 [Compound 98] | < 0.5
6 | COc1ccc2c(n1)c(C(=O)CN1CCCCC1)c(C)n2-c1ccc(C#N)cc1 [Compound 177, 4-(5-Methoxy-2-methyl-3-(2-(piperidin-1-yl)acetyl)-1H-pyrrolo[3,2-b]pyridin-1-yl)benzonitrile] | < 0.5
7 | Cc1c(C(=O)CN2CCCCC2)c2ncccc2n1-c1ccc(Cl)cc1 [Compound 161] | < 0.5
8 | Cc1c(C(=O)CN2CCCCC2(C)C)c2ncc(Br)cc2n1-c1ccc(C#N)cc1 [Compound 318] | < 0.5
9 | Cc1c(C(=O)CN2CCC(O)CC2)c2ncccc2n1-c1ccc(C#N)cc1 [Compound 335] | < 0.5
10 | Cc1c(C(=O)CN2CCCCC2)c2ncc(CC(=O)NC3CC3)cc2n1-c1ccc(C#N)cc1 [Compound 381, 2-(1-(4-Cyanophenyl)-2-methyl-3-(2-(piperidin-1-yl)acetyl)-1H-pyrrolo[3,2-b]pyridin-6-yl)-N-cyclopropylacetamide] | < 0.5
11 | [2H]C1([2H])N(CC(=O)c2c(C)n(-c3ccc(C#N)cc3)c3cc(Br)cnc23)C([2H])([2H])C([2H])([2H])C([2H])([2H])C1([2H])[2H] [Compound 320] | < 0.5
12 | Cc1c(C(=O)CN2CCCCC2)c2nc(F)ccc2n1-c1ccc(Cl)cc1 [Compound 173] | < 0.5
13 | Cc1c(C(=O)CN2CCCCC2)c2cc([N+](=O)[O-])ccc2n1-c1ccc(Cl)cc1 [Compound 150] | 0.5 to 5
14 | COCCOc1cnc2c(C(=O)CN3CCCCC3)c(C)n(-c3ccc(Cl)cc3)c2c1 [Compound 364] | < 0.5
15 | COc1ccc2c(C(=O)CN3CCCCC3)c(C)n(-c3ccc(Cl)cc3)c2c1 [Compound 178] | < 0.5
16 | C#CCCCNC(=O)CCc1cnc2c(C(=O)CN3CCC(O)CC3)c(C)n(-c3ccc(C#N)cc3)c2c1 [Compound 361] | < 0.5
17 | Cc1c(C(=O)CN2CCC(O)CC2)c2ncc(C(F)(F)F)cc2n1-c1ccc(C#N)cc1 [Compound 302] | < 0.5
18 | O=C(CN1CCC(O)CC1)c1cn(-c2ccc(Cl)cc2)c2ccccc12 [Compound 30] | > 5
19 | Cc1c(C(=O)CN2CCC(O)CC2)c2ccccc2n1-c1ccc(F)c(F)c1 [Compound 391] | 0.5 to 5
20 | CCN(CCc1cnc2c(C(=O)CN3CCCCC3)c(C)n(-c3ccc(Cl)cc3)c2c1)S(C)(=O)=O [Compound 303, N-(2-(1-(4-Chlorophenyl)-2-methyl-3-(2-(piperidin-1-yl)acetyl)-1H-pyrrolo[3,2-b]pyridin-6-yl)ethyl)-N-ethylmethanesulfonamide] | < 0.5
21 | CCOC(=O)C[C@H](C)c1cnc2c(C(=O)CN3CCCCC3)c(C)n(-c3ccc(C#N)cc3)c2c1 [Compound 351, Ethyl (S)-3-(1-(4-Cyanophenyl)-2-methyl-3-(2-(piperidin-1-yl)acetyl)-1H-pyrrolo[3,2-b]pyridin-6-yl)butanoate] | < 0.5
22 | CN(C)c1c(C(=O)CN2CCCCC2)c2ccccc2n1-c1ccc(Cl)cc1 [Compound 192] | > 5

Row | SMILES | IC50 [µM]
23 | Cc1c(C(=O)CN2CCCC[C@H]2C)c2ncc(Br)cc2n1-c1ccc(C#N)cc1 [Compound 309] | < 0.5
24 | COc1cnc2c(C(=O)CN3CCC(O)CC3)c(C)n(-c3ccc(C#N)cc3)c2c1 [Compound 339] | < 0.5
25 | Cc1c(C(=O)CN2CCCCC2)c2cccc(F)c2n1-c1ccc(C#N)cc1 [Compound 170] | < 0.5
26 | CCCOc1cnc2c(C(=O)CN3CCC(O)CC3)c(C)n(-c3ccc(C#N)cc3)c2c1 [Compound 347] | < 0.5
27 | Cc1nc2c(C(=O)CN3CCCCC3)c(C)n(-c3ccc(C#N)cc3)c2cc1CCC(=O)O [Compound 202, 3-(1-(4-Cyanophenyl)-2,5-dimethyl-3-(2-(piperidin-1-yl)acetyl)-1H-pyrrolo[3,2-b]pyridin-6-yl)propanoic Acid Hydrochloride Salt] | < 0.5
28 | O=C(CN1CCCC1)c1cn(-c2ccc(Cl)cc2)c2ccccc12 [Compound 34] | > 5
29 | Cc1c(C(=O)CN2CC3(CCC3)C2)c2ncc(Br)cc2n1-c1ccc(C#N)cc1 [Compound 359] | > 5
30 | COC1CCN(CC(=O)c2c(C)n(-c3ccc(C#N)cc3)c3cc(Br)cnc23)CC1 [Compound 311] | < 0.5
31 | Cc1c(C(=O)CN2CCS(=O)(=O)CC2)c2ncc(Br)cc2n1-c1ccc(C#N)cc1 [Compound 327] | > 5
32 | Cc1c(C(=O)CN2CCCCC2)c2cc(C#N)ccc2n1-c1ccc(C#N)cc1 [Compound 163] | < 0.5
33 | Cc1c(C(=O)CN2CCCCC2)c2ccc(CCO)cc2n1-c1ccc(C#N)cc1 [Compound 207, 4-(6-(2-Hydroxyethyl)-2-methyl-3-(2-(piperidin-1-yl)acetyl)-1H-indol-1-yl)benzonitrile] | < 0.5
34 | Cc1c(C(=O)CN2CCCCC2)c2ncccc2n1-c1ccc(C#N)nc1 [Compound 181, 5-(2-Methyl-3-(2-(piperidin-1-yl)acetyl)-1H-pyrrolo[3,2-b]pyridin-1-yl)picolinonitrile] | < 0.5
35 | CCOC(=O)CNCC1CCN(CC(=O)c2c(C)n(-c3ccc(C#N)cc3)c3cc(Br)cnc23)CC1 [Compound 368] | 0.5 to 5
36 | Cc1c(C(=O)CN2CCCCC2)c2ccccc2n1-c1ccc(C(N)=O)cc1 [Compound 108] | > 5
37 | Cc1c(C(=O)CN2CCCCC2)c2ncc(CCC(=O)NCCN=[N+]=[N-])cc2n1-c1ccc(C#N)cc1 [Compound 304] | < 0.5
38 | CCOC(=O)CCc1ccc2c(C(=O)CN3CCCCC3)c(C)n(-c3ccc(C#N)cc3)c2c1 [Compound 133, Ethyl 3-(1-(4-Cyanophenyl)-2-methyl-3-(2-(piperidin-1-yl)acetyl)-1H-indol-6-yl)propanoate] | < 0.5
39 | Cc1c(C(=O)CN2CCCCC2)c2ncc(Cl)cc2n1-c1ccc(C#N)cc1 [Compound 385] | < 0.5
40 | Cc1c(C(=O)CN2CCCCC2)c2ncc(C(F)(F)F)cc2n1-c1ccc(C#N)cc1 [Compound 300] | < 0.5
41 | Cc1c(C(=O)CN2CCCCC2)c2cccnc2n1-c1ccc(C#N)cc1 [Compound 141, 4-(2-Methyl-3-(2-(piperidin-1-yl)acetyl)-1H-pyrrolo[2,3-b]pyridin-1-yl)benzonitrile] | 0.5 to 5
42 | O=C(CN1CCCCC1)c1c(O)n(-c2ccc(Cl)cc2)c2ccccc12 [Compound 131, 1-(1-(4-Chlorophenyl)-2-hydroxy-1H-indol-3-yl)-2-(piperidin-1-yl)ethan-1-one] | > 5
43 | Cc1c(C(=O)CN2C[C@H](C)C[C@@H](C)C2)c2ncc(Br)cc2n1-c1ccc(C#N)cc1 [Compound 348] | > 5
44 | Cc1c(C(=O)CN2CCCCC2)c2ncc(C#CCOC(=O)N(C)C)cc2n1-c1ccc(C#N)cc1 [Compound 319, 3-(1-(4-Cyanophenyl)-2-methyl-3-(2-(piperidin-1-yl)acetyl)-1H-pyrrolo[3,2-b]pyridin-6-yl)prop-2-yn-1-yl Dimethylcarbamate] | < 0.5
